How the values were obtained:
Assay in all cases: two-electrode voltage clamp, Xenopus oocytes
Assay type in all cases: cell-based, Cimex lectularius
OR20/ORCO = tested on: T1, OR20/ORCO; conditions: agonist; co-expressed ORCO; -80 mV; pH 7.6 Ringer; text rounds to 7.5 × 10^−6
T1 construct: cRNA (pT7Ts vector) co-injected with ORCO into Xenopus laevis oocytes; with Odorant receptor coreceptor

OR36/ORCO = tested on: T2, OR36/ORCO; conditions: agonist; co-expressed ORCO; -80 mV; pH 7.6 Ringer; text rounds to 7.1 × 10^−6
T2 construct: cRNA (pT7Ts vector) co-injected with ORCO into Xenopus laevis oocytes; with Odorant receptor coreceptor

OR37/ORCO = tested on: T3, OR37/ORCO; conditions: agonist; co-expressed ORCO; -80 mV; pH 7.6 Ringer; text b25 prints 6.5 × 10^−6 (discrepant)
T3 construct: cRNA (pT7Ts vector) co-injected with ORCO into Xenopus laevis oocytes; with Odorant receptor coreceptor

In the case of `CCN(CC)C(=O)c1cccc(C)c1` [DEET, N,N-Diethyl-3-Methylbenzamide], the EC50 (OR20/ORCO) is reported as 7.468 × 10^−6 v/v, the EC50 (OR36/ORCO) is reported as 7.096 × 10^−6 v/v and the EC50 (OR37/ORCO) is reported as 6.684 × 10^−6 v/v.

Reference: PMC5476731, “Molecular Basis of N,N-Diethyl-3-Methylbenzamide (DEET) in Repelling the Common Bed Bug, Cimex lectularius” (Frontiers in Physiology, 2017)
